The results in this text go back to PubChem BioAssay AID200 (DTP/NCI, 2004).

The experiment concerns B6C3F1 mice, B16 melanoma ip, median survival T/C. Description: NCI In Vivo Anticancer Drug Screen. Data for tumor model B16 Melanoma (intraperitoneal) in B6C3F1 mice. The note with it: endpoint: median survival time, higher = longer survival. In short, it runs like this:
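Transplantable tumor in mice; treated vs vehicle control groups; survival or tumor size measured; value = T/C ratio.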

Where [1] appears, read: dose: 100.0 mg/kg/injection, schedule: Q01DX009 (ip), vehicle: water.
The mark [2] stands for this setting: dose: 1.5 mg/kg/injection, schedule: Q01DX009 (ip), vehicle: water.
[3] abbreviates: dose: 12.5 mg/kg/injection, schedule: Q01DX009 (ip), vehicle: saline with Tween-80.
[4] abbreviates: dose: 25.0 mg/kg/injection, schedule: Q01DX009 (ip), vehicle: saline with Tween-80.
[5] abbreviates: dose: 50.0 mg/kg/injection, schedule: Q01DX009 (ip), vehicle: saline with Tween-80.
[6] abbreviates: dose: 100.0 mg/kg/injection, schedule: Q01DX009 (ip), vehicle: saline with Tween-80.
The mark [7] stands for this setting: dose: 200.0 mg/kg/injection, schedule: Q01DX009 (ip), vehicle: saline with Tween-80.
[8] abbreviates: dose: 50.0 mg/kg/injection, schedule: Q01DX009 (ip), vehicle: saline.

Values joined by “and” are separate entries in the source; they are usually repeats but may differ in a detail not shown here. Identical values can stand only once. Inconclusive results and toxic doses are left out.

On to `C=C(OP(=O)(OC)OC)Sc1ccccc1C`, for which the T/C by setting is: (dose: 0.06 mg/kg/injection, schedule: Q01DX009 (ip), vehicle: Klucel (hydroxypropylcellulose) (HPC)) 94 % of control; (dose: 0.12 mg/kg/injection, schedule: Q01DX009 (ip), vehicle: Klucel (hydroxypropylcellulose) (HPC)) 102 % of control; (dose: 0.25 mg/kg/injection, schedule: Q01DX009 (ip), vehicle: Klucel (hydroxypropylcellulose) (HPC)) 104 % of control; (dose: 0.38 mg/kg/injection, schedule: Q01DX009 (ip), vehicle: Klucel (hydroxypropylcellulose) (HPC)) 121 % of control; (dose: 0.5 mg/kg/injection, schedule: Q01DX009 (ip), vehicle: Klucel (hydroxypropylcellulose) (HPC)) 100 % of control; (dose: 0.75 mg/kg/injection, schedule: Q01DX009 (ip), vehicle: Klucel (hydroxypropylcellulose) (HPC)) 107 % of control.

Consider `O=S(=O)(O)O`, for which the T/C (dose: 30.0 mg/kg/injection, schedule: Q01DX009 (ip), vehicle: water) is 121 % of control and 91 % of control; the T/C (dose: 44.0 mg/kg/injection, schedule: Q01DX009 (ip), vehicle: water) is 108 % of control and 99 % of control; the T/C (dose: 67.0 mg/kg/injection, schedule: Q01DX009 (ip), vehicle: water) is 95 % of control and 102 % of control; the T/C under setting [1] was 97 % of control and 103 % of control.

Consider `CC[n+]1c(-c2ccccc2)c2cc(N)ccc2c2ccc(N)cc21`, for which the T/C runs as follows: (dose: 0.75 mg/kg/injection, schedule: Q01DX009 (ip), vehicle: water) 97 % of control; under setting [2], 104 % of control; (dose: 3.0 mg/kg/injection, schedule: Q01DX009 (ip), vehicle: water) 117 % of control and 97 % of control; (dose: 6.0 mg/kg/injection, schedule: Q01DX009 (ip), vehicle: water) 118 % of control; (dose: 12.0 mg/kg/injection, schedule: Q01DX009 (ip), vehicle: water) 154 % of control.

For the molecule `O=C(O)/C=C/C(=O)N1Cc2cc3ccccc3nc2C1`, the T/C was 110 % of control under setting [3]; 99 % of control under setting [4]; 98 % of control under setting [5]; 94 % of control under setting [6]; 95 % of control under setting [7].

`Nc1ccc(C(=O)O)cc1`: the T/C by setting is: (dose: 3.12 mg/kg/injection, schedule: Q01DX009 (ip), vehicle: Klucel (hydroxypropylcellulose) (HPC)) 100 % of control and 104 % of control; (dose: 6.25 mg/kg/injection, schedule: Q01DX009 (ip), vehicle: Klucel (hydroxypropylcellulose) (HPC)) 114 % of control and 99 % of control and 103 % of control; (dose: 12.5 mg/kg/injection, schedule: Q01DX009 (ip), vehicle: Klucel (hydroxypropylcellulose) (HPC)) 114 % of control and 101 % of control; (dose: 25.0 mg/kg/injection, schedule: Q01DX009 (ip), vehicle: Klucel (hydroxypropylcellulose) (HPC)) 112 % of control and 90 % of control and 107 % of control; (dose: 25.0 mg/kg/injection, schedule: Q01DX009 (ip), vehicle: water) 98 % of control; (dose: 50.0 mg/kg/injection, schedule: Q01DX009 (ip), vehicle: Klucel (hydroxypropylcellulose) (HPC)) 100 % of control. Moreover, the T/C reads like this: (dose: 50.0 mg/kg/injection, schedule: Q01DX009 (ip), vehicle: water) 101 % of control; (dose: 100.0 mg/kg/injection, schedule: Q01DX009 (ip), vehicle: Klucel (hydroxypropylcellulose) (HPC)) 117 % of control; under setting [1], 102 % of control; (dose: 200.0 mg/kg/injection, schedule: Q01DX009 (ip), vehicle: Klucel (hydroxypropylcellulose) (HPC)) 105 % of control.

For `Nc1nc(N)c2cc(S(=O)(=O)c3ccccc3)ccc2n1`, the T/C runs as follows: under setting [4], 88 % of control; under setting [5], 103 % of control and 105 % of control; under setting [7], 153 % of control and 171 % of control.

For the molecule `COC1=CCC23C(=O)C=CC(=O)C2(C1)C(=O)c1ccccc1C3=O` (stereo not given), the T/C runs as follows: (dose: 1.56 mg/kg/injection, schedule: Q01DX009 (ip), vehicle: saline with Tween-80) 99 % of control; (dose: 3.12 mg/kg/injection, schedule: Q01DX009 (ip), vehicle: saline with Tween-80) 96 % of control; (dose: 6.25 mg/kg/injection, schedule: Q01DX009 (ip), vehicle: saline with Tween-80) 93 % of control; under setting [3], 94 % of control.

With `O=c1cc(-c2ccc3ccccc3n2)oc2ccc(Cl)cc12`, the T/C runs as follows: (dose: 10.0 mg/kg/injection, schedule: Q01DX009 (ip), vehicle: saline with Tween-80) 99 % of control; (dose: 20.0 mg/kg/injection, schedule: Q01DX009 (ip), vehicle: saline with Tween-80) 101 % of control; (dose: 40.0 mg/kg/injection, schedule: Q01DX009 (ip), vehicle: saline with Tween-80) 95 % of control.

As for `NCCC(=O)NC(Cc1cnc[nH]1)C(=O)O` (stereo not given), the T/C reads like this: under setting [8], 102 % of control; (dose: 100.0 mg/kg/injection, schedule: Q01DX009 (ip), vehicle: saline) 104 % of control; (dose: 200.0 mg/kg/injection, schedule: Q01DX009 (ip), vehicle: saline) 103 % of control; (dose: 400.0 mg/kg/injection, schedule: Q01DX009 (ip), vehicle: saline) 104 % of control.

Consider `NC(=O)Oc1cccc(OC(N)=O)c1`, for which the T/C is 108 % of control (dose: 12.5 mg/kg/injection, schedule: Q01DX009 (ip), vehicle: distilled water + Tween-80); 107 % of control (dose: 25.0 mg/kg/injection, schedule: Q01DX009 (ip), vehicle: distilled water + Tween-80); 99 % of control (dose: 50.0 mg/kg/injection, schedule: Q01DX009 (ip), vehicle: distilled water + Tween-80); 96 % of control (dose: 100.0 mg/kg/injection, schedule: Q01DX009 (ip), vehicle: distilled water + Tween-80); 113 % of control (dose: 200.0 mg/kg/injection, schedule: Q01DX009 (ip), vehicle: distilled water + Tween-80); 105 % of control (dose: 400.0 mg/kg/injection, schedule: Q01DX009 (ip), vehicle: distilled water + Tween-80).

`COc1cccc2c1C(=O)c1c(O)c3c(c(O)c1C2=O)C[C@](O)(C(=O)CO)CC3OC1CC(N)C(OC2CCCCO2)C(C)O1` (stereo not given in full): the T/C is, setting by setting: under setting [2], 382 % of control; (dose: 1.56 mg/kg/injection, schedule: Q01DX001 (ip), vehicle: water) 172 % of control; (dose: 3.12 mg/kg/injection, schedule: Q01DX001 (ip), vehicle: water) 206 % of control and 218 % of control; (dose: 6.25 mg/kg/injection, schedule: Q01DX001 (ip), vehicle: water) 222 % of control and 317 % of control; (dose: 12.5 mg/kg/injection, schedule: Q01DX001 (ip), vehicle: water) 229 % of control and 264 % of control.

As to `CCN(CC)CC(=O)O[C@]1(CC)C(=O)OCc2c1cc1n(c2=O)Cc2cc3ccccc3nc2-1`, the T/C (dose: 1.0 mg/kg/injection, schedule: Q01DX009 (ip), vehicle: water) was 108 % of control; the T/C (dose: 2.0 mg/kg/injection, schedule: Q01DX009 (ip), vehicle: water) is 121 % of control; the T/C (dose: 4.8 mg/kg/injection, schedule: Q01DX009 (ip), vehicle: water) is 152 % of control; the T/C (dose: 8.0 mg/kg/injection, schedule: Q01DX009 (ip), vehicle: water) is 166 % of control.

Take `COc1cc(C)c2c(c1C=O)Oc1c(c(C)c(O)c3c1C(O)OC3=O)OC2=O` (stereo not given): the T/C reads like this: (dose: 3.12 mg/kg/injection, schedule: Q01DX009 (ip), vehicle: saline) 94 % of control; (dose: 6.25 mg/kg/injection, schedule: Q01DX009 (ip), vehicle: saline) 100 % of control; (dose: 12.5 mg/kg/injection, schedule: Q01DX009 (ip), vehicle: saline) 105 % of control; (dose: 25.0 mg/kg/injection, schedule: Q01DX009 (ip), vehicle: saline) 98 % of control; under setting [8], 98 % of control.

In the case of `Cc1ccc(NC(=O)Oc2ccc(Br)cc2Br)c([N+](=O)[O-])c1`, the T/C was 105 % of control under setting [3]; 104 % of control under setting [4]; 105 % of control under setting [5]; 101 % of control under setting [6]; 103 % of control under setting [7]; 107 % of control (dose: 400.0 mg/kg/injection, schedule: Q01DX009 (ip), vehicle: saline with Tween-80).
